Reference: ChEMBL document CHEMBL1155011, “Structure-activity relationships of the cycloalkanol ethylamine scaffold: discovery of selective norepinephrine reuptake inhibitors” (J Med Chem, 2008)

Assays:
[1] = target: T1, Sodium-dependent dopamine transporter (Homo sapiens, UniProt Q01959); assay: Displacement of [3H]WIN-35428 from human recombinant dopamine transporter expressed in CHO cells at 1000 nM; assay type: cell-based
[2] = target: T2, Sodium-dependent noradrenaline transporter (Homo sapiens, UniProt P23975)
Description: Inhibition of norepinephrine uptake at human norepinephrine transporter expressed in MDCK-Net6 cells

[3] = target: T3, Sodium-dependent serotonin transporter (Homo sapiens, UniProt P31645); assay: Inhibition of 5HT uptake at human SERT expressed in human JAR cells at 1000 nM; assay type: cell-based
Target sequence in this assay (P31645 whole entry, looked up): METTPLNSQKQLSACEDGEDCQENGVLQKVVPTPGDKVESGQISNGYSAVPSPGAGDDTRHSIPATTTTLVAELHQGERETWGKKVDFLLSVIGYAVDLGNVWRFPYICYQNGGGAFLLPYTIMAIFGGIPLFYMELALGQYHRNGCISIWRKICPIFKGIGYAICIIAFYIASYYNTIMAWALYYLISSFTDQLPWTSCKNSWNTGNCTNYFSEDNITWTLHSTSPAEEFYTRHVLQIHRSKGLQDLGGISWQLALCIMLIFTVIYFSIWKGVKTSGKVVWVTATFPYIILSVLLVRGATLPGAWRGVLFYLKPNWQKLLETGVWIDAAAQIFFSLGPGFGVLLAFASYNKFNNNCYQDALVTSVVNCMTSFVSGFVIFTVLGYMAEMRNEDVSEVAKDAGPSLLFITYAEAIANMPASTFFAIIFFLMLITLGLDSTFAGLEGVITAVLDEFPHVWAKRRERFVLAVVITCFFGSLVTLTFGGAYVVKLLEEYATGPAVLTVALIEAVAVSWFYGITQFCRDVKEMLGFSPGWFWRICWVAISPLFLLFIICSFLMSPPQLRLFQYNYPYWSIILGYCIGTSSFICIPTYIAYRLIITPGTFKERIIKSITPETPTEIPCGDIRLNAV

[4] = target: T2, Sodium-dependent noradrenaline transporter; assay: biochemical
Description: Displacement of [3H]nisoxetine from human norepinephrine transporter expressed in MDCK-Net6 cells

[5] = target: T3, Sodium-dependent serotonin transporter; assay type: cell-based, JAR
Target sequence in this assay (P31645 whole entry): as the sequence (P31645 whole entry, looked up) above

[6] = target: T1, Sodium-dependent dopamine transporter; assay: biochemical
Transporter = Transporter (Rattus norvegicus, UniProt Q63380)
Description: Inhibition of norepinephrine uptake at rat brain norepinephrine transporter

Homo sapiens = species on record: Homo sapiens; assay: Selectivity ratio of IC50 for human NET over IC50 for human SERT

T1 sequence (Q01959 whole entry): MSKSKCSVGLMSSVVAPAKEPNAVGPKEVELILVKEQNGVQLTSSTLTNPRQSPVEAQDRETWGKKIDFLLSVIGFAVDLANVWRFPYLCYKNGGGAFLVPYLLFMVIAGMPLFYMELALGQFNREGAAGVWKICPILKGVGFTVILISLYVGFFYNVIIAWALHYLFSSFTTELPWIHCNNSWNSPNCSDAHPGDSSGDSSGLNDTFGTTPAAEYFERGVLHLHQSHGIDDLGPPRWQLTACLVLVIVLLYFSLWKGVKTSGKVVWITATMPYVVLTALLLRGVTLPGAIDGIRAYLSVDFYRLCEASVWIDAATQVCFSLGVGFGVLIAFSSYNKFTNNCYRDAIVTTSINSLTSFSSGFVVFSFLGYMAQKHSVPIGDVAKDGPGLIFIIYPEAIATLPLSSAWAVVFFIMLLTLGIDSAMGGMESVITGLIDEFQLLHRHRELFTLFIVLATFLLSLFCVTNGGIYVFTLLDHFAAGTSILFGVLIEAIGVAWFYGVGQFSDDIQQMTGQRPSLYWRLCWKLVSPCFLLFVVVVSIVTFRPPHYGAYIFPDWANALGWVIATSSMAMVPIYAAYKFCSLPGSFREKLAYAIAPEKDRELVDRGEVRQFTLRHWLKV
T2 sequence (P23975 whole entry): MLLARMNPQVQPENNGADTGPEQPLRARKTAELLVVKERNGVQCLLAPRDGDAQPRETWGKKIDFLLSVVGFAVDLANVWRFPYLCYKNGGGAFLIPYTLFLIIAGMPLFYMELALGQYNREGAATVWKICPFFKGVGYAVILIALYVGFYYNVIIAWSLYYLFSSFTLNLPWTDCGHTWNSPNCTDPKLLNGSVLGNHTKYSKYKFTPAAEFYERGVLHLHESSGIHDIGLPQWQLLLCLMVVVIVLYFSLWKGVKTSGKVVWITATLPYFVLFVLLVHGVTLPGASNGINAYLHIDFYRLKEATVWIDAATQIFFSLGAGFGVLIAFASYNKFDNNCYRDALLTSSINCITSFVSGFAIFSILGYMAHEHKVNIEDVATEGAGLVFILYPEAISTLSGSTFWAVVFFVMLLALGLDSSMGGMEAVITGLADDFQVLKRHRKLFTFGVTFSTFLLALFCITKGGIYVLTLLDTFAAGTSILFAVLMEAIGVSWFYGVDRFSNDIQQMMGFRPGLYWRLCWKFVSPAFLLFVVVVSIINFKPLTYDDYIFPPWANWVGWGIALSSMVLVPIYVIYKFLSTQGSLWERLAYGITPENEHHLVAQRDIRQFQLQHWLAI
Chain of Transporter (Q63380 whole entry): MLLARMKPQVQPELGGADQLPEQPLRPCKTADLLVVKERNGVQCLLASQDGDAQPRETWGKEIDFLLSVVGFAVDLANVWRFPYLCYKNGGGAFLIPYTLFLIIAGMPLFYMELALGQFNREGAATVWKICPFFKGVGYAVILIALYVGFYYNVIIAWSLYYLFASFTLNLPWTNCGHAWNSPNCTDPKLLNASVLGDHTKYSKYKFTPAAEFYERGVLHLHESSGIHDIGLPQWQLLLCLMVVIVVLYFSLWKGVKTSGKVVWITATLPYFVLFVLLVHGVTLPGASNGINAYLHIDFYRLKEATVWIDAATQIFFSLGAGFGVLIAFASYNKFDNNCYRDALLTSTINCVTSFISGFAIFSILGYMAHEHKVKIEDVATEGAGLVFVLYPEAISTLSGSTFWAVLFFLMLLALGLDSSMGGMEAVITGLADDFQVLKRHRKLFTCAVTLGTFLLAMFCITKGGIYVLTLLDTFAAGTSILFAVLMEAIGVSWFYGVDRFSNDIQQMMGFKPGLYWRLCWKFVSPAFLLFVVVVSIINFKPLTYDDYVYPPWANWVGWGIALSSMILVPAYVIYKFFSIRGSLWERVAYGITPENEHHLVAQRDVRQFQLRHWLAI

Structure (SMILES) | Activity [1] | IC50 [2] | inhibition [3] | Ki [4] | IC50 [5] | Ki [6] | IC50 (Transporter) | Ratio IC50 (Homo sapiens)
COc1cccc(C(CN2CCNCC2)C2(O)CCCCC2)c1 (stereo not drawn) | 2% | 870 nM | 8% | 745 nM |  |  |  | 
CN1CCN(CC(c2ccc(OC(F)(F)F)cc2)C2(O)CCCCC2)CC1 (stereo not drawn) | 13% | 575 nM |  | 417 nM | 1210 nM |  |  | 
CN1CCN(C[C@H](c2cccc(Cl)c2)C2(O)CCCCC2)CC1 |  | 29 nM | 9% | 14 nM |  | 73 nM |  | 
CN1CCN(CC(c2cccc(F)c2)C2(O)CCCCC2)CC1 (stereo not drawn) | 29% | 240 nM | 12% | 364 nM |  |  |  | 
COc1cccc(C(CN2CCN(C)CC2)C2(O)CCCCC2)c1 (stereo not drawn) | 4% | 600 nM | 14% | 514 nM |  |  |  | 
OC1(C(CN2CCNCC2)c2cccc(Cl)c2)CCCCC1 (stereo not drawn) |  | 38 nM |  | 18 nM | 4960 nM | 45 nM |  | 
CN(C)CC(c1cccc(C(F)(F)F)c1)C1(O)CCCCC1 (stereo not drawn) | 15% | 32 nM |  | 21 nM | 534 nM |  | 360 nM | 16.7
CN1CCN(CC(c2cccc(OC(F)(F)F)c2)C2(O)CCCCC2)CC1 (stereo not drawn) | 3% |  | 12% |  |  |  |  | 
COc1cccc(C(CN(C)C)C2(O)CCCCC2)c1 (stereo not drawn) | 9% | 208 nM |  | 316 nM | 88 nM |  | 620 nM | 0.42
